Results from patent publication US20240068023A1 (The Trustees of Indiana University, priority 2021, published 2024).
“Also recorded” adds a separate entry of the source. Where two headings read alike, the source gives them in different places.

Assays:
AAG = conditions: plasma; cited from earlier work
[1] = cited from earlier work
[2] = tested on: children undergoing PE and PSF surgeries; test: Postoperative opioid use, pain scores, FDI and hospital stay with multidose methadone-based multimodal analgesia (Example 1); format: in vivo, human; conditions: for postoperative opioid use (morphine equivalents): current Example
[3] = tested on: adolescents undergoing PSF; conditions: cited from earlier work; for postoperative opioid use (morphine equivalents): another adolescent PSF study, single larger intraoperative methadone dose; for mean morphine equivalent dose 0-72 hour: historical cohort
[4] = Plasma R-, S- and total methadone concentrations after multiple small perioperative methadone doses (Example 1); conditions: human, in vivo, 0.1 mg/kg/dose
[5] = tested on: adolescents undergoing PSF that received methadone; test: Preliminary pharmacogenetic associations in 50 PSF adolescents that received methadone; format: in vivo, human
Text: OPRM1 rs1799971 is also associated with susceptibility to dependence.

[6] = tested on: children undergoing PE and PSF surgeries; test: Safety of multidose perioperative methadone: respiratory depression, PONV, QTc (Example 1)
[7] = tested on: children undergoing PE and PSF surgeries; test: CYP2B6 genetic associations with methadone-induced PONV and pain scores (Example 3); format: in vivo, human
Text: This Example is a prospective, genotype-blinded, clinical observational study of children undergoing Nuss bar repair for pectus excavatum (PE) and posterior spinal fusion (PSF) repair for idiopathic scoliosis that received multidose methadone-based multimodal analgesia, performed in a tertiary care pediatric hospital.
Multimodal analgesia protocols as illustrated in TABLE 1 set forth above in Example 1 were followed for all the participants undergoing the surgeries.
The primary clinical outcome measured was PONV. The secondary outcome measured was maximum postoperative pain scores. Episodes of PONV were recorded as a binary outcome from nursing reports on electronic health records. Analgesic efficacy was described in terms of patient self-reported pain scores. Pain scores were collected every 2 to 4 h using a self-reported numeric rating scale ranging from 0 to 10.
Analyses were performed using the dominant, additive or recessive models to explore for possible associations. Associations were tested using ‘A’ as the referent allele and ‘a’ as the alternative allele under dominant model (i.e. AA vs. Aa/aa), additive model (i.e. AA vs. Aa vs. aa) and recessive model (i.e. AA/Aa vs. aa). Linear regression was used to investigate SNP associations for pain score. Poisson regression was used to investigate SNP associations for PONV. Unadjusted as well as covariate-adjusted analyses, adjusted for weight, race, age, surgery type and sex were performed. For primary outcome, PONV, the SNP's rate ratios (i.e. exponential of the slope parameter in the Poisson regression), p-values and 95% Cis were computed. For postoperative pain score, the SNPs' effect (i.e. the slope parameter in the linear regression model), p-values, and 95% confidence intervals (CIs) were computed.
Because eight SNPs were used for the final analysis, a Bonferroni correction was used for multiple comparisons for the primary outcome measure, which yielded a significance threshold of p=0.00625 [p=0.05/8 SNPs)].

[8] = tested on: children undergoing PE and PSF surgeries; test: Regression of clinical outcomes on pharmacokinetic measures (Example 1, Table 3); conditions: logistic regression; CI in next column
[9] = equations 7, 10; decrease
Text: Oral doses were either given as a tablet or a suspension depending on the patient's convenience. […] The time schedule was later modified to collect more samples through the 1st and 3rd inter-dose interval without samples through the 2n d interdose interval. This was done to aid in the optimal spread of the collected concentration time-points and improvement of estimation of absorption parameters of the oral doses. Some of the samples collected in a parallel study were also used whenever available with the consent of the patient to aid with the better estimation of the terminal elimination phase.
The first-order conditional estimation method with η-ε interaction (FOCE-I) was used throughout the model building process. The dose of the drug, concentrations of the drug and the metabolite were converted to their molar counterparts to aid in the accurate estimation of the pharmacokinetic parameters. Perl-Speaks-NONMEM v.4.9.0, R v.4.0.4 (R Foundation for Statistical Computing) with the Xpose4 package v.4.6.0, RStudio v1.4 and Pirana v.2.9.9 were used for data exploration, visualization, diagnostics and automation. Measured plasma concentrations that were below the LLOQ were dealt with using the M1 method (discarding concentrations below the LLOQ and estimate the PK parameters using the remaining concentrations). […] Model assessment was based on successful minimization, OFV, the proper running of the covariance step, relative standard error of the parameter estimates, the goodness of fit plots and eta-shrinkage. Model validation was done using visual predictive checks and a bootstrapping procedure. The predictive performance of the models was evaluated using prediction corrected visual predictive checks (n=1000). The robustness of the final parameter estimates and the stability of the final model were validated using bootstrapping by generating 1000 resampled datasets with replacement.
The model building process was done in a step-wise process. Multiple disposition models (one-, two- and three-compartment) were evaluated. Absorption models with various absorption parameters (first order absorption with and without lag, transit compartment models) were tried. Bioavailability was estimated as each patient had both intravenous and oral dose data. […] Vf was fixed to 1 in the model due to unidentifiability of the metabolite parameters as there were no urine data available for either the drug or the metabolite. CLF is the fraction of CL, the total clearance of the drug that contributes to CL2, the clearance towards the formation of the metabolite. […]
The demographic covariates checked were biological gender, body weight, fat free mass, BMI and race. […] AAG was measured at every time-point the concentrations were measured and were therefore used as a time-varying covariate in the model. […]

[10] = postoperative day 1, median (IQR)
[11] = postoperative day 2, median (IQR)
[12] = postoperative day 3, median (IQR)
[13] = postoperative day 4, median (IQR)
[14] = postoperative day 5, median (IQR)

CCC(=O)C(CC(C)N(C)C)(c1ccccc1)c1ccccc1 (racemic) [methadone]
bound to AAG (AAG): 80-90%
contribution of CYP3A4 to the metabolism of the drug ([1]; in vivo): more than 50%
parent drug eliminated in urine ([1]; in vivo): 10-20%
inter-individual variation in blood levels after methadone administration ([1]; up to): ≤ 17 fold
mean morphine equivalent, multi-dose methadone regimen ([2]; 0-72 hour, standard deviation 28.4): 113.25
median FDI score ([2]; 3 months postoperatively, median (IQR)): 4 (0-9.5)
median FDI score ([2]; 6 months postoperatively, median (IQR)): 2 (0-4)
median FDI score ([2]; 12 months postoperatively, median (IQR)): 0 (0-3.5)
Average pain scores during the entire in-hospital stay ([2]; PE): 3.60
median hospital stay ([2]; PE): 4 days
Average pain scores during the entire in-hospital stay ([2]; PSF): 3.95
median hospital stay ([2]; PSF): 3 days
median total opioid usage ([2]; following PE): 2.6 mg/kg
median total opioid usage ([2]; following PSF): 2.1 mg/kg
Average morphine equivalent dose ([2]; median (IQR)): 0.66 (0.59-0.74) mg/kg/day
median usage of the common rescue opioids ([2]; not different between the surgeries): 0.03 mg/kg morphine equivalents
Average pain score ([2]; numeric rating scale 0 to 10, median (IQR)): 3.53 (2.73-4.80)
postoperative opioid use (morphine equivalents) ([2]; postoperative day 1): 0.6 mg/kg
Pain scores [2, 10]: 3.5 (2.3-5.1)
morphine equivalent units, including methadone doses [2, 10]: 0.61 (0.56-0.65) MEU/kg
postoperative opioid use (morphine equivalents) ([2]; postoperative day 2): 0.88 mg/kg
Pain scores [2, 11]: 3.4 (2.9-4.6)
morphine equivalent units, including methadone doses [2, 11]: 0.88 (0.68-1.06) MEU/kg
postoperative opioid use (morphine equivalents) ([2]; postoperative day 3): 0.64 mg/kg
Pain scores [2, 12]: 3.7 (2.0-5.2)
morphine equivalent units, including methadone doses [2, 12]: 0.58 (0.37-0.85) MEU/kg
Pain scores [2, 13]: 3.8 (2.7-5.0)
morphine equivalent units, including methadone doses [2, 13]: 0.42 (0.35-0.58) MEU/kg
Pain scores [2, 14]: 3.7 (3.3-4.4)
morphine equivalent units, including methadone doses [2, 14]: 0.59 (0.21-0.67) MEU/kg
mean morphine equivalent dose in the first 72 postoperative hours ([2]; printed as mean (95% CI: 98.5-131.8)): 120.2 mg
opioid use reduction ([2]; vs historical PCA opioids without intraoperative methadone, first 72 postoperative hours): 58.67%
opioid use reduction ([2]; vs historical single intraoperative methadone of 0.1 mg/kg): 59.12%
opioid use reduction ([2]; vs historical single intraoperative methadone of 0.2 mg/kg): 47.81%
opioid use reduction ([2]; vs historical single intraoperative methadone of 0.3 mg/kg): 48.76%
incidence of postoperative respiratory depression ([3]; 7 out of 31 receiving intraoperative methadone, first 48 hours): 22.6%
postoperative opioid use (morphine equivalents) ([3]; postoperative day 1): 0.54 mg/kg
postoperative opioid use (morphine equivalents) ([3]; postoperative day 2): 1.08 mg/kg
postoperative opioid use (morphine equivalents) ([3]; postoperative day 3): 1.29 mg/kg
mean morphine equivalent dose 0-72 hour ([3]; single intraoperative methadone 0.3 mg/kg): 221
mean morphine equivalent dose 0-72 hour ([3]; single intraoperative methadone of 0.1 mg/kg): 277 mg
PONV incidence in other studies ([3]; in vivo): 33-38%
incidence of respiratory depression ([3]; large observational study, intraoperative methadone of 0.14 mg/kg and postoperative opioids): 37%
Cmax [4]: 24.7 ng/mL
average in-hospital opioid use ([5]; OPRM1 rs1799971 AA genotype): 33.2 ± 8.0 mg
average in-hospital opioid use ([5]; OPRM1 rs1799971 GG and GA genotype): 40.1 ± 6.1 mg
hospital stay ([5]; adolescents other than FAAH rs3766246 wild type): 2.6 ± 0.8 days
lower in-hospital opioid use, homologous/heterologous variants of FAAH rs3766246 and rs4141964 ([5]; compared with the wild type): 15-20%
higher average in-hospital opioid use, OPRM1 rs1799971 GG and GA vs AA genotype ([5]; in vivo): 20%
longer hospital stay, wild type of FAAH rs3766246 ([5]; than others): 1 days
episodes of PONV ([6]; 38 children): 18
respiratory depression observed ([6]; 38 children receiving multiple dose of methadone): 0%
respiratory depression (in words) ([6]; 38 children, 95% Wilson binomial confidence [0, 0.09]): No child in this Example had respiratory depression; also recorded: no patient had respiratory depression
Postoperative QTc ([6]; median (IQR), Bazett's formula): 431 (414-440) ms
postoperative QTc longer than preoperative QTc interval ([6]; median, IQR -10, 28): 9 ms
patients with PONV ([6]; of 38 children): 12
Morphine equivalent - Fusion ([7]; mean): 0.6 mg/kg
Morphine equivalent - Pectus ([7]; mean): 0.7 mg/kg
Length of hospital stay ([7]; mean, 53 children): 2.7 days
Beta, patient reported pain scores ([7]; rs4803419, Recessive model TT vs CC/TT (so in the source), Covariate adjusted analysis): −1.70
Beta, patient reported pain scores ([7]; rs4803419, Recessive model TT vs CC/TT (so in the source), Unadjusted analysis): −1.78
Beta, patient reported pain scores ([7]; rs10500282, Additive Model CC vs TT, Covariate adjusted analysis): −2.61
Beta, patient reported pain scores ([7]; rs10500282, Additive Model CC vs TT, Unadjusted analysis): −2.00
Beta, patient reported pain scores ([7]; rs10500282, Additive Model TC vs TT, Covariate adjusted analysis): 1.31
Beta, patient reported pain scores ([7]; rs10500282, Additive Model TC vs TT, Unadjusted analysis): 1.33
Beta, patient reported pain scores ([7]; rs10500282, Dominant model TC/CC vs TT, Covariate adjusted analysis): 1.18
Beta, patient reported pain scores ([7]; rs10500282, Dominant model TC/CC vs TT, Unadjusted analysis): 1.16
Beta, patient reported pain scores ([7]; rs11882424, Additive Model TC vs TT, Covariate adjusted analysis): 2.12
Beta, patient reported pain scores ([7]; rs11882424, Additive Model TC vs TT, Unadjusted analysis): 2.19
Beta, patient reported pain scores ([7]; rs11882424, Dominant model TC/CC vs TT, Covariate adjusted analysis): 2.12
Beta, patient reported pain scores ([7]; rs11882424, Dominant model TC/CC vs TT, Unadjusted analysis): 2.19
OR, Nausea/Vomiting vs Methadone dose per kg per day [8]: 3.1e3

CCC(=O)C(C[C@H](C)N(C)C)(c1ccccc1)c1ccccc1 [S-methadone]
fractional change of V2 per active allele rs17650 (ORM1) [9]: 0.526
proportional change of V2 per unit AAG conc from 94.76 [9]: 0.00192

CCC(=O)C(C[C@@H](C)N(C)C)(c1ccccc1)c1ccccc1 [R-methadone]
fractional change of V2 per active allele rs17650 (ORM1) [9]: 0.443
proportional change of V2 per unit AAG conc from 94.76 [9]: 0.00291
